Source: paper PMC5992992, “Functional Consequences of the Postnatal Switch From Neonatal to Mutant Adult Glycine Receptor α1 Subunits in the Shaky Mouse Model of Startle Disease” (Frontiers in Molecular Neuroscience, 2018)

Key:
[1] = biological target: T1, glycine receptor α1 subunit (GlyR α1) (Mus musculus, UniProt Q64018); experiment: whole-cell patch-clamp dose-response of bath-applied glycine in brain stem slices
T1 construct: gene Glra1; native GlyRs in hypoglossal motoneurons of brain stem slices (Glra1+/+, P18-24); with GlyR β subunit (Glrb)

[2] = biological target: T2, glycine receptor α1 subunit (GlyR α1 Q177K, shaky) (Mus musculus, UniProt Q64018, Q205K); experiment: as above
T2 construct: gene Glra1; native GlyRs in hypoglossal motoneurons of brain stem slices (Glra1sh/sh, P18-24); with GlyR β subunit (Glrb)

NCC(=O)O [glycine]
EC50 [1]: 277 µM | EC50 [2]: 384 µM
